Experimental data published in patent publication US10239880B2, “Cyclopenta[d]pyrimidines and substituted cyclopenta[d]pyrimidines as antitubulin and microtubule targeting agents, monocyclic pyrimidines as tubulin inhibitors, and pyrrolopyrimidines as targeted antifolates and tubulin and multiple receptor tyrosine kinase inhibition and antitumor agents” (Duquesne University of the Holy Spirit, priority 2015, dated 2019).
Like-named read-outs stand apart in the source and are kept apart here.

Columns and labels:
[1] = system: Pgp expressing SK-OV-3 MDR1-6-6; assay: Antiproliferative activity, Pgp expressing SK-OV-3 MDR1-6-6; assay type: cell-based; details: Homo sapiens, SK-OV-3; Table 6; read-out: IC50 ± SD Pgp expressing SK-OV-3 MDR1-6-6
[2] = system: Parental SK-OV-3; assay: Antiproliferative activity, parental SK-OV-3; assay type: cell-based; details: Homo sapiens, Table 6, read-out: IC50 ± SD Parental SK-OV-3
[3] = system: β-III overexpressing HeLa; assay: Antiproliferative activity, β-III overexpressing HeLa; assay type: cell-based; details: for IC50: Homo sapiens, HeLa, Table 7, read-out: IC50 ± SD β-III overexpressing HeLa
Text: (§1) Another clinically relevant drug resistance mechanism of tubulin-targeting agents is the overexpression of the βIII isotype of tubulin.

[4] = system: Parental HeLa; assay: Antiproliferative activity, parental HeLa; assay type: cell-based; details: Homo sapiens, Table 7, read-out: IC50 ± SD Parental HeLa
Text: as §1

[5] = system: A-10 cells; assay: Microtubule depolymerization, cell-based phenotypic assay in A-10 cells
[6] = system: KB (RFC/FRα/PCFT); assay: Growth inhibition of KB tumor cells; assay type: cell-based, human
Protocol: Cell proliferation was assayed with CellTiter-Blue™ with a fluorescent plate reader.

[7] = system: PC43-10 (RFC); assay: Proliferation inhibition, RFC-expressing PC43-10 cells; assay type: cell-based, Chinese hamster; details: Table 11
Text: (§2) AGF215, AGF234 and AGF263 were compared to AGF23 as inhibitors of proliferation of engineered Chinese hamster ovary (CHO) cells expressing human PCFT (R2/PCFT4), FRα (RT16), or RFC (PC43-10).

[8] = system: RT16 (FRα); assay: Proliferation inhibition, FRα-expressing RT16 cells; assay type: cell-based, Chinese hamster
Text: as §2

[9] = system: MDA-MB-435 cancer cells; assay: Antiproliferative effect in MDA-MB-435 cancer cells (SRB assay); assay type: cell-based; details: Table 3a, read-out: IC50 ± SD in MDA-435 Cells
[10] = system: U251; assay: U251 cytotoxicity; assay type: cell-based; details: Homo sapiens, U-251; Table 3b; unit inferred
[11] = system: A431; assay: A431 cytotoxicity; details: Homo sapiens, A-431, read-out: A431 cytotoxicity, Table 3b; unit inferred
[12] = target: PDGFR-β (Homo sapiens, UniProt P09619); assay: Kinase inhibition, whole-cell assay, PDGFR-β; assay type: cell-based; details: Table 3b; unit inferred; read-out: PDGFR kinase inhibition
Sequence of PDGFR-β (P09619 33-1106, species assumed): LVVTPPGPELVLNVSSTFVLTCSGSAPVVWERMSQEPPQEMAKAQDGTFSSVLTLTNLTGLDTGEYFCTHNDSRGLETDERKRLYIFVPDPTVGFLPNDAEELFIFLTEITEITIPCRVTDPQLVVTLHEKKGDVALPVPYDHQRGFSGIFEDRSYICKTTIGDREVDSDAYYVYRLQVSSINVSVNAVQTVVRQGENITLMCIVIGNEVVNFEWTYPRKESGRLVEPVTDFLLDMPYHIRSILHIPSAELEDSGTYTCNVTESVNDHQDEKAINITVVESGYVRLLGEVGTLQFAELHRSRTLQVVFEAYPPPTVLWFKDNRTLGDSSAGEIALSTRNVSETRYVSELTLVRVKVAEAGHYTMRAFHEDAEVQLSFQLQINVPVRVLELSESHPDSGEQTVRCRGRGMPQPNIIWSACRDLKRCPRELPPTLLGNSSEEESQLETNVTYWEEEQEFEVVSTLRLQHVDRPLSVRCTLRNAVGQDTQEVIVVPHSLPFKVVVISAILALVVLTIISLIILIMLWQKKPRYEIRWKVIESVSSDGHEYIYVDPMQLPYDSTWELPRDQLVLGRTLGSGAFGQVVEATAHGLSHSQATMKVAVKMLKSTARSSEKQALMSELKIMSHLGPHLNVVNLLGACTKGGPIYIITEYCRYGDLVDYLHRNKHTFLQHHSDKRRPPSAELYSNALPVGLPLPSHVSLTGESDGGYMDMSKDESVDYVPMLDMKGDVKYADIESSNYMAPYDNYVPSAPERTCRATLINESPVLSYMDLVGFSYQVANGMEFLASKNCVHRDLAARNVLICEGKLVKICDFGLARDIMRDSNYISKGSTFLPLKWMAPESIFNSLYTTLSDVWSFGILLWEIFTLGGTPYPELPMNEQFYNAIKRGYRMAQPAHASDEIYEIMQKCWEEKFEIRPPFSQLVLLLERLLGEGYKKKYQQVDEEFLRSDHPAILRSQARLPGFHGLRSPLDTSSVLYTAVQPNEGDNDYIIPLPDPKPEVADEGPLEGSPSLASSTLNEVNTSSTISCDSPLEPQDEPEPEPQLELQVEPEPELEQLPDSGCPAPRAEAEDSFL

[13] = system: CAM; assay: CAM (gi50); details: Table 3b; unit inferred
[14] = target: EGFR (Homo sapiens, UniProt P00533); assay: Kinase inhibition, whole-cell assay, EGFR; assay type: cell-based; details: Table 3b; unit inferred; read-out: EGFR kinase inhibition
Sequence of EGFR (P00533 25-1210, species assumed): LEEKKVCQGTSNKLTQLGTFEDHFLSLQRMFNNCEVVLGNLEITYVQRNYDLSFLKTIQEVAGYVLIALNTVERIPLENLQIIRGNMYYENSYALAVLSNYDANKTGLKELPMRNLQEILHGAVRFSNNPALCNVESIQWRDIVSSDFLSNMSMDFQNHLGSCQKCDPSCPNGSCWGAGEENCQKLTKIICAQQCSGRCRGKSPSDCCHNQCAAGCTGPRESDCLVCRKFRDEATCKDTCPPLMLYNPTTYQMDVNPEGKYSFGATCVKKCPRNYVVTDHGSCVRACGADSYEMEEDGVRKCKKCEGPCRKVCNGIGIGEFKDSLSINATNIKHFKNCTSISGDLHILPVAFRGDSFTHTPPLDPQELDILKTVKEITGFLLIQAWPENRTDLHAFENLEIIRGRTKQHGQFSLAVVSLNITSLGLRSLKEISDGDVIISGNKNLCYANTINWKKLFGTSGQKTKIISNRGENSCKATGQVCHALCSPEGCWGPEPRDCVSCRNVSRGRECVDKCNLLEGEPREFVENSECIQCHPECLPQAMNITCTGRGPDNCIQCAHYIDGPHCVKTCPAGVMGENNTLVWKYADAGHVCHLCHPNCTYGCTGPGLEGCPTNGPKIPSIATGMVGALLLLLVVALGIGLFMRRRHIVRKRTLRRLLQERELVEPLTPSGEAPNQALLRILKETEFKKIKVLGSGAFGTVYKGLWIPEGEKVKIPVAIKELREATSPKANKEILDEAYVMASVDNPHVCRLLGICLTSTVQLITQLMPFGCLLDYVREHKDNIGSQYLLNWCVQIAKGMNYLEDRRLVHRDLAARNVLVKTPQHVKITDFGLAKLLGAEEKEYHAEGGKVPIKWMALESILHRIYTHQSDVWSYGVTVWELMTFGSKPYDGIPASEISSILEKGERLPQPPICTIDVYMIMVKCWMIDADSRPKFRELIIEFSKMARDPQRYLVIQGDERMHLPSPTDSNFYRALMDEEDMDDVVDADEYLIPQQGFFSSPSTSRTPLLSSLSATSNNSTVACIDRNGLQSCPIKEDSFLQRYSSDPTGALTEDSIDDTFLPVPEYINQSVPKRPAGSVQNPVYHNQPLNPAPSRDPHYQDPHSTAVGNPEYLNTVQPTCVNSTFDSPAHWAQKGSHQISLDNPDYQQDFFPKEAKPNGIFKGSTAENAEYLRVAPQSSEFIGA

[15] = target: VEGFR2 (Homo sapiens, UniProt P35968); assay: Kinase inhibition, whole-cell assay, VEGFR2 (Flk-1); assay type: cell-based; details: Table 3b; unit inferred
Sequence of VEGFR2 (P35968 20-1356, species assumed): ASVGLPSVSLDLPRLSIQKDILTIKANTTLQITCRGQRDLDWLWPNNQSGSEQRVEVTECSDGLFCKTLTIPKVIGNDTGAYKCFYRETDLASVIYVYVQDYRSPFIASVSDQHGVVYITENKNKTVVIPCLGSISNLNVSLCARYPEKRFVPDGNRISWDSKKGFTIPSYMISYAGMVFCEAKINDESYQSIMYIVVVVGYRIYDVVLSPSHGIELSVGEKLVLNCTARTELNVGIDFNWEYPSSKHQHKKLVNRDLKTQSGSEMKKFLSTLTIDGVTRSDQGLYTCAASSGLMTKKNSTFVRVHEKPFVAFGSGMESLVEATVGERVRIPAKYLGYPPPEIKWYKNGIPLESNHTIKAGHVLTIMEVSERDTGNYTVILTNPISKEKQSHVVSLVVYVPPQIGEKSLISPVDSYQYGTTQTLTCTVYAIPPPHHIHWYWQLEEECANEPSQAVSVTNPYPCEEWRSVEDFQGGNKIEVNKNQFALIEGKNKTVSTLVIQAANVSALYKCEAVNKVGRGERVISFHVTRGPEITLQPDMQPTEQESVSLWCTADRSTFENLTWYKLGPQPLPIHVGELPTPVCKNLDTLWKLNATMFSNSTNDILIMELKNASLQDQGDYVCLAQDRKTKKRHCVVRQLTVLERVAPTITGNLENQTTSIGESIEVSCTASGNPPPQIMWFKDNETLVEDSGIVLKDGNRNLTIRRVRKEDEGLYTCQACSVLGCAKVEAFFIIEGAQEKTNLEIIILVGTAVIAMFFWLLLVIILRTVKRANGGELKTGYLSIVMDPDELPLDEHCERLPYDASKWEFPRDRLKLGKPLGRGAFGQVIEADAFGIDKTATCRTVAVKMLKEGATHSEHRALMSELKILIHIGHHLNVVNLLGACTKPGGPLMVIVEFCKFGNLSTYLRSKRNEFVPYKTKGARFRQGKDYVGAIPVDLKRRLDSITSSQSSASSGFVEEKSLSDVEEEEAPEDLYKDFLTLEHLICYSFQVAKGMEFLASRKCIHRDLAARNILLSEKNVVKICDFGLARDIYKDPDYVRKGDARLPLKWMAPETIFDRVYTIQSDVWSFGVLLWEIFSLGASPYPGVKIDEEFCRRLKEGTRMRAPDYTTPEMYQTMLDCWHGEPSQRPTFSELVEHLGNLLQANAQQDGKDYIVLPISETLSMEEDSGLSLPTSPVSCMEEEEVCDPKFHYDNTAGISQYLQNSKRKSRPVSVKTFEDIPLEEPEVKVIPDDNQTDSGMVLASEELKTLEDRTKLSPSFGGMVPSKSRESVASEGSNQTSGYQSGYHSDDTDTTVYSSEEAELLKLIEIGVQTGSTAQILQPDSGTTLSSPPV

[16] = Rattus norvegicus, A10, read-out: EC50 in A-10 cells (Concentration that causes 50% tubulin loss in A-10 cells), Table 4, Section II compounds
[17] = Table 3a, unit inferred, read-out: EC50 for Microtubule Depolymerization in A · 10 Cells
[18] = Rattus norvegicus, A10, Table 3a, unit inferred, read-out: EC50 for Microtubule Depolymerization in A · 10 Cells

Which IC50 [1] does the source give for `Cc1nc2c(c(N(C)c3ccc(N(C)C)cc3)n1)CCC2` [Compound 9] here?
The IC50 was 22.6 ± 2.3 nM.

And the IC50 [2]?
The IC50 was 13 ± 1 nM.

What about the IC50 [3] of the same molecule?
Its IC50 is 9.8 ± 0.9 nM.

What about the IC50 [4] of the same molecule?
The IC50 was 11 ± 1 nM.

`COc1ccc([C@H](C)N(C)c2nc(C)nc3c2CCC3)cc1` [Compound 10] was tested. Which EC50 [5, 16] did it give?
Its EC50 is over 10000 nM.

With `COc1ccc([C@@H](C)N(C)c2nc(C)nc3c2CCC3)cc1` [Compound 11] as the molecule, how does the EC50 [5, 16] read?
Its EC50 is over 10000 nM.

What does the source list for `Cc1nc2ccc3ccc(CNc4ccc5c(c4)CN([C@@H](CCC(=O)O)C(=O)O)C5=O)cc3c2c(=O)[nH]1` [GW1843U89]?
IC50 ([6]; Table 11, read-out: IC50 RFC/FRα/PCFT KB): 5.8 nM; IC50 ([6]; with folic acid (+FA), read-out: IC50 RFC/FRα/PCFT KB (+FA)): 32 nM

With `Nc1nc(N)c2nc(CNc3ccc(C(=O)N[C@@H](CCCNC(=O)c4ccccc4C(=O)O)C(=O)O)cc3)cnc2n1` [PT523] as the molecule, how does the IC50 [7] read?
Its IC50 is 1.28 nM.

And the IC50 ([8]; Table 11, read-out: IC50 FRα RT16)?
The IC50 was 409 nM.

And the IC50 ([8]; with folic acid (+FA), read-out: IC50 FRα RT16 (+FA))?
The IC50 was over 1000 nM.

Which IC50 [1] does the source give for `CNc1ccc(N(C)c2nc(C)nc3c2CCC3)cc1` [Section II compound 8] here?
The IC50 was 49.7 ± 7.9 nM.

What about the IC50 [2] of the same molecule?
The IC50 was 36.3 ± 3.3 nM.

What about the IC50 [3] of the same molecule?
Its IC50 is 19.1 ± 3.9 nM.

What about the “Rr*” value ([3]; relative resistance, β-III overexpressing HeLa vs parental HeLa) of the same molecule?
Its value is 0.6.

What about the IC50 [4] of the same molecule?
The IC50 was 31 ± 1.6 nM.

How did the EC50 [5, 16] turn out when `COc1ccc(CN(C)c2nc(C)nc3c2CCC3)cc1` [Section II compound 12] was run?
Its EC50 is 11300 nM.

With `COc1cccc2cc(N(C)c3nc(C)nc4ccn(C)c34)ccc12` [Table 3a 14] as the molecule, how does the IC50 ([9]; unit inferred) read?
The IC50 was 2000 nM.

And the EC50 [5, 17]?
Its EC50 is over 10000 nM.

Which IC50 ([9]; unit inferred) does the source give for `COc1cccc2cc(N(C)c3nc(Cl)nc4ccn(C)c34)ccc12` [Table 3a 15] here?
The IC50 was 22.6 nM.

And the EC50 [5, 17]?
The EC50 was 50 nM.

What does the source list for `COc1ccc(N(C)c2ncnc3ccn(C)c23)cc1` [Table 3a 17]?
IC50 ([9]; unit inferred): 13.4 ± 0.5 nM; EC50 [5, 17]: 27.5 nM

With `COc1ccc(N(C)c2nc(Cl)nc3ccn(C)c23)cc1` [Table 3a 19] as the molecule, how does the IC50 ([9]; Homo sapiens, unit inferred) read?
The IC50 was 1.3 nM.

And the IC50 [10]?
Its IC50 is 3.1 ± 0.4 nM.

What about the IC50 [11] of the same molecule?
The IC50 was 2.1 ± 0.3 nM.

And the IC50 [12]?
The IC50 was 4.2 ± 0.9 nM.

What about the EC50 [5, 18] of the same molecule?
The EC50 was 1.48 nM.

What about the GI50 [13] of the same molecule?
Its GI50 is 9.3 ± 0.91 nM.

And the IC50 [14]?
The IC50 was 6.3 ± 0.9 nM.

What about the IC50 [15] of the same molecule?
The IC50 was 12.4 ± 1.2 nM.

How did the IC50 ([9]; Homo sapiens, unit inferred) turn out when `COc1ccc2c(c1)CCCN2c1nc(Cl)nc2ccn(C)c12` [Table 3a 23] was run?
The IC50 was 4.1 ± 0.1 nM.

And the IC50 [10]?
Its IC50 is 3.8 ± 0.5 nM.

What about the IC50 [11] of the same molecule?
The IC50 was 3 ± 0.3 nM.

What about the IC50 [12] of the same molecule?
The IC50 was 8.4 ± 0.8 nM.

What about the EC50 [5, 18] of the same molecule?
Its EC50 is 3.31 nM.

And the GI50 [13]?
The GI50 was 7.6 ± 1 nM.

And the IC50 [14]?
Its IC50 is 9 ± 0.9 nM.

What about the IC50 [15] of the same molecule?
The IC50 was 15.2 ± 2 nM.

How did the IC50 ([9]; Homo sapiens, cells that print nM) turn out when `CSc1ccc(N(C)c2nc(C)nc3ccn(C)c23)cc1` [Table 3a 26] was run?
The IC50 was 6.2 nM.

And the IC50 [10]?
Its IC50 is 35.1 ± 6.3 nM.

And the IC50 [11]?
Its IC50 is 18.8 ± 4.1 nM.

And the IC50 [12]?
The IC50 was 450 ± 53.1 nM.

And the EC50 ([5]; Rattus norvegicus, A10, Table 3a, lines that print nM, read-out: EC50 for Microtubule Depolymerization in A · 10 Cells)?
Its EC50 is 23 nM.

And the GI50 [13]?
The GI50 was 363 ± 56.9 nM.

What about the IC50 [14] of the same molecule?
Its IC50 is 54.8 ± 9.2 nM.

And the IC50 [15]?
The IC50 was 544 ± 77.2 nM.

`CSc1ccc(N(C)c2nc(Cl)nc3ccn(C)c23)cc1` [Table 3a 27] was tested. Which IC50 ([9]; Homo sapiens, unit inferred) did it give?
Its IC50 is 3.6 ± 0.3 nM.

What about the IC50 [10] of the same molecule?
The IC50 was 11.3 ± 1.8 nM.

And the IC50 [11]?
The IC50 was 8.2 ± 1.3 nM.

And the IC50 [12]?
Its IC50 is 10.8 ± 1.6 nM.

And the EC50 [5, 18]?
The EC50 was 2.7 nM.

What about the GI50 [13] of the same molecule?
The GI50 was 45.2 ± 5.2 nM.

What about the IC50 [14] of the same molecule?
Its IC50 is 16.4 ± 2.6 nM.

What about the IC50 [15] of the same molecule?
The IC50 was 33.9 ± 3.9 nM.

For `CN(c1ccc(OC(F)(F)F)cc1)c1nc(Cl)nc2ccn(C)c12` [Table 3a 29], which IC50 ([9]; Homo sapiens, unit inferred) is on record?
Its IC50 is 49.3 ± 1.1 nM.

And the EC50 [5, 18]?
Its EC50 is 139 nM.
